What was measured:
[1] = test system: patient with hyperuricemia accompanied by gout; assay: Lysozyme enteric tablets in patient with hyperuricemia accompanied by gout; type: in vivo, human; details: same patient before lysozyme; serum uric acid remained at 700 μmol/L or more
Description: The administration of lysozyme enteric tablets (produced by Xiangbei Welman Pharmaceutical Co., Ltd.) by two patients with hyperuricemia is described below to specifically illustrate the present disclosure.
A person suffering from gout had obvious redness, swelling and pain in the ankles and toes, and difficulty in walking. […] The lysozyme enteric tablets were tried daily (once in the morning, once at noon and once in the evening, 2 g each time). One month later, they felt that the frequency of pain episodes decreased and the difficulty in walking was alleviated.

[2] = test system: hyperuricemia model animals; assay: Effect on serum uric acid level of hyperuricemia model rats (potassium oxonate + uric acid); type: in vivo, SD rats; details: for Serum uric acid content, Day 0: Day 0, before modeling and before drug, 8 rats; for Serum uric acid content, Day 0 / Serum uric acid content, Day 12 / Serum uric acid content, Day 18: X ± SD; for Serum uric acid content, Day 12: Day 12, after modeling, before drug (dosing from D13)
Description: (§1) Lysozyme granules, enteric lysozyme granules, and benzbromarone fine granules. Each test drug was moistened and uniformly mixed with 0.5% sodium carboxymethylcellulose for easy administration.
(§2) SD rats. The rats had free access to drinking water and food, and they were adaptively reared for one week before test.
(§3) Except for rats in the blank group, the other rats were modeled for 12 days, and the serum uric acid level of each rat was detected. Then the rats were evenly divided into groups according to the uric acid level of each rat, with 8 animals in each group.
(§4) Lysozyme groups and enteric lysozyme groups: High and low doses of the lysozyme granules and enteric lysozyme granules were respectively taken orally, and the dosages were 10 mg/kg and 30 mg/kg based on the active ingredient, once a day.
(§5) Benzbromarone group: The benzbromarone fine granules were taken orally at a dose of 30 mg/kg based on the active ingredient, once a day.
(§6) The test was carried out for a total of 18 days.
(§7) On day 1 of the test, except for the animals in the blank group, the animals in the other groups were orally given a modeling agent (1.5 g/kg potassium oxonate +0.3 g/kg uric acid, dissolved in 0.5% sodium carboxymethylcellulose) once to start modeling, and thereafter, the same amount of the modeling agent was administrated at the same time every day. 0.5 ml of blood was taken from the orbit before the start of the test (DO) and on day 12
(§8) (D12) of the test, respectively, and centrifuged, then the serum was taken and tested for serum uric acid level using a uric acid assay kit and a microplate reader; in addition, 0.5 g of fresh midsection rat feces were taken, diluted and uniformly mixed with four times volume of phosphate buffer, centrifuged, ultrasonically mixed until uniform, incubated at 100° C. for 40 minutes, cooled and then centrifuged, and the supernatant was taken and tested for fecal uric acid level using the uric acid assay kit and the microplate reader.
(§9) Thereafter, the rats were grouped according to the serum uric acid value of each rat. From day 13 (D13), each rat was given the test drug intragastrically every day, as well as the modeling agent every day. The interval between the administration of the test drug and the administration of the modeling agent was more than 1 hour. The drug administration was stopped after day 18 (D18) of the test, and the serum uric acid levels and fecal uric acid levels were determined according to the previous method.

[3] = test system: hyperuricemia model animals; assay: Effect on fecal uric acid level of hyperuricemia model rats (potassium oxonate + uric acid); type: in vivo, SD rats; details: for Fecal uric acid content, Day 0: Day 0, before modeling and before drug; for Fecal uric acid content, Day 0 / Fecal uric acid content, Day 12 / Fecal uric acid content, Day 18: X ± SD; for Fecal uric acid content, Day 12: Day 12, after modeling, before drug; for Fecal uric acid levels compared with the model control group: day 18
Description: as §1, §2, §3, §4, §5, §6, §7, §8, §9

[4] = 10 mg/kg oral once a day D13-D18
[5] = 30 mg/kg oral once a day D13-D18

Compound | Effects of past use to relieve pain and reduce uric acid [1] | Serum uric acid content, Day 0 ([2]; 10 mg/kg group) [µmol/L] | Serum uric acid content, Day 12 ([2]; 10 mg/kg group) [µmol/L] | Serum uric acid content, Day 18 [2, 4] [µmol/L] | Serum uric acid content, Day 0 ([2]; 30 mg/kg group) [µmol/L] | Serum uric acid content, Day 12 ([2]; 30 mg/kg group) [µmol/L] | Serum uric acid content, Day 18 [2, 5] [µmol/L] | Serum uric acid levels compared with the model control group ([2]; day 18) | Fecal uric acid content, Day 0 ([3]; 10 mg/kg group) [mmol/L] | Fecal uric acid content, Day 12 ([3]; 10 mg/kg group) [mmol/L] | Fecal uric acid content, Day 18 [3, 4] [mmol/L] | Fecal uric acid content, Day 0 ([3]; 30 mg/kg group) [mmol/L] | Fecal uric acid content, Day 12 ([3]; 30 mg/kg group) [mmol/L] | Fecal uric acid content, Day 18 [3, 5] [mmol/L] | Fecal uric acid levels compared with the model control group [3]
Oc1ncnc2[nH]ncc12 [allopurinol] | not good |  |  |  |  |  |  |  |  |  |  |  |  |  | 
Lysozyme: Homemade granules: lysozyme with a potency of more than 20000 U/mg mixed with the same amount of starch, granulated with water |  | 43.66 ± 4.16 | 122.12 ± 10.27 | 161.97 ± 22.11 | 40.49 ± 3.33 | 120.79 ± 17.64 | 149.76 ± 20.12 | significantly lower | 0.98 ± 0.13 | 1.26 ± 0.24 | 1.84 ± 0.20 | 1.15 ± 0.16 | 1.24 ± 0.20 | 1.98 ± 0.20 | significantly higher
CC(C)Cc1ccc(C(C)C(=O)O)cc1 (centres unmarked) [ibuprofen] | not good |  |  |  |  |  |  |  |  |  |  |  |  |  | 
CCc1oc2ccccc2c1C(=O)c1cc(Br)c(O)c(Br)c1 [Benzbromarone, reference compound] |  |  |  |  | 41.02 ± 3.71 | 117.14 ± 17.74 | 153.45 ± 26.17 |  |  |  |  | 1.12 ± 0.17 | 1.25 ± 0.31 | 1.34 ± 0.31 | did not increase significantly

— patent US20220265785A1, “COMPOSITION FOR PREVENTING OR TREATING URIC ACID-RELATED DISEASE” (GUANGZHOU CENTURY CLINICAL RESEARCH CO., LTD, priority 2019, published 2022)
